From patent publication US8101408B2, “Insecticidal extract from legume plants and method of preparing the same” (Her Majesty the Queen in right of Canada, as represented by …, priority 2005, dated 2012)
Where “and” joins values, the source holds several entries; their conditions need not be identical. Equal values may be shown once. Entries after “also recorded” stand apart in the source; their conditions may differ. Read-outs that look alike come from different tables or passages of the source.

Tests used:
[1] = system: Sitophilus oryzae; assay: Flour disk antifeedant bioassay with rice weevils (food consumption as % of control; EC50/EC90 for feeding reduction); assay type: in vivo; details: for food consumption, peptide to saponin treatment ratio 1:1 / food consumption, peptide to saponin treatment ratio 9:1 / food consumption, peptide to saponin treatment ratio 1:9: peptide source AIEX YM3; for synergy with pea peptides (in words): single dose tests, pea peptide to saponin treatment ratios of 9:1, 1:1 and 1:9; for food consumption, initial treatment: Table 20, saponin alone; for antifeedant activity (in words): rice weevil flour disk bioassay; for EC90 (%) to reduce feeding by 90%: three days on treated wafers
Experimental: The bioactivity of separated fractions was determined primarily by a flour disk antifeedant bioassay with the rice weevil (Sitophilus oryzae), an insect pest of stored products.
A glass column (1.2 cm internal diameter×20.5 cm length) equipped with a solvent reservoir and stopcock was filled with silica gel (Mallinckrodt SilicAR cc-7) using a slurry of the silica gel in chloroform (Merck OmniSolv containing 1% ethanol). The top of the bed was protected with sea sand. C8 powder (130 mg) was applied to the column, after mixing with silica gel, as a 1.25 cm band. Using a slight positive air pressure to maintain reasonable flow rates, the column was eluted with chloroform (75 ml) then with 75 ml volumes of various mixtures of chloroform and methanol followed by pure methanol (Table 1). The column was eluted with more methanol (75 ml) and finally with two additional volumes of methanol (250 ml each). […] A final evaporation was performed with a Savant apparatus (43° C.). The tubes were re-weighed, capped and transferred to the bioassay laboratory. Each sample was dissolved in 70% ethanol (0.5 ml) and 0.2 ml of that solution was added to the wheat flour (200 mg) for preparation of the disks. […] Control disks were prepared with 0.2 ml of 70% ethanol.
A test insecticidal compound is incorporated into flour disks. […] A typical dose in many of the above examples is 1.6 milligram/200 milligram flour. Wheat flour is typically used.
(§1) Reduction in feeding activity elicited by the experimental samples was compared to food consumption of untreated controls, obtained by weighing the disks before and after exposure to insects and expressed as percent feeding relative to the control. Bioassay can also include insecticidal measurements (lethality with rice weevil).
(§2) Flour disks (ca. 0.1 g/disk) were weighed before and after exposure to the insects. […] Antifeedant activity was determined by expressing consumption of treated disks as a percentage of control disks (70% ethanol). Positive controls using the same C8 extract were run with each bioassay.
The estimate and confidence limits are the values of X where the line Y=Yo crosses the regression line and its upper and lower confidence curves, respectively. The formulae can be expressed in terms of outputs from the regression analysis. Let a and b be the estimates of the intercept and slope, MSE the mean square error, n the number of observations, t the (2-sided) critical value of t with n−2 degrees of freedom, V(b) the variance (standard error squared) of b and D=b^2−t^2V(b)). Then the estimate of X is Xo=(Yo−a)/b and the confidence limits for X are X0+t^2V(b)(Y0− Y)/bD±H where H^2=t^2└D·MSE/n+V(b)(Y0− Y)^2┘/D^2. The interval is not symmetric about Xo. […]

[2] = system: Sitophilus oryzae; assay type: in vivo; details: for Mean survival time (days ± SE) / LD90 (%): saponin:peptide ratio 1:0; for LD90 (%): held three days on treated wafers, at 7 days; for mortality / toxicity to the rice weevil (in words): used alone
Experimental: as §1, §2
Probit analysis (Polo-PC, LeOra Software, Berkeley, Calif., U.S.A.) was used to estimate the concentrations required to kill 50 and 90% of the population after seven days. For the experiments that used a single dose, the mean survival time was estimated using Kaplan-Meier survival analysis (SigmaStat 3.0, SPSS Inc, Chicago, Ill., U.S.A.).

[3] = biological target: calcium-dependent potassium channels (Homo sapiens, UniProt Q12791); details: mammalian in vitro experiments (McManus et al.); cited from earlier work
calcium-dependent potassium channels, sequence (Q12791 whole entry): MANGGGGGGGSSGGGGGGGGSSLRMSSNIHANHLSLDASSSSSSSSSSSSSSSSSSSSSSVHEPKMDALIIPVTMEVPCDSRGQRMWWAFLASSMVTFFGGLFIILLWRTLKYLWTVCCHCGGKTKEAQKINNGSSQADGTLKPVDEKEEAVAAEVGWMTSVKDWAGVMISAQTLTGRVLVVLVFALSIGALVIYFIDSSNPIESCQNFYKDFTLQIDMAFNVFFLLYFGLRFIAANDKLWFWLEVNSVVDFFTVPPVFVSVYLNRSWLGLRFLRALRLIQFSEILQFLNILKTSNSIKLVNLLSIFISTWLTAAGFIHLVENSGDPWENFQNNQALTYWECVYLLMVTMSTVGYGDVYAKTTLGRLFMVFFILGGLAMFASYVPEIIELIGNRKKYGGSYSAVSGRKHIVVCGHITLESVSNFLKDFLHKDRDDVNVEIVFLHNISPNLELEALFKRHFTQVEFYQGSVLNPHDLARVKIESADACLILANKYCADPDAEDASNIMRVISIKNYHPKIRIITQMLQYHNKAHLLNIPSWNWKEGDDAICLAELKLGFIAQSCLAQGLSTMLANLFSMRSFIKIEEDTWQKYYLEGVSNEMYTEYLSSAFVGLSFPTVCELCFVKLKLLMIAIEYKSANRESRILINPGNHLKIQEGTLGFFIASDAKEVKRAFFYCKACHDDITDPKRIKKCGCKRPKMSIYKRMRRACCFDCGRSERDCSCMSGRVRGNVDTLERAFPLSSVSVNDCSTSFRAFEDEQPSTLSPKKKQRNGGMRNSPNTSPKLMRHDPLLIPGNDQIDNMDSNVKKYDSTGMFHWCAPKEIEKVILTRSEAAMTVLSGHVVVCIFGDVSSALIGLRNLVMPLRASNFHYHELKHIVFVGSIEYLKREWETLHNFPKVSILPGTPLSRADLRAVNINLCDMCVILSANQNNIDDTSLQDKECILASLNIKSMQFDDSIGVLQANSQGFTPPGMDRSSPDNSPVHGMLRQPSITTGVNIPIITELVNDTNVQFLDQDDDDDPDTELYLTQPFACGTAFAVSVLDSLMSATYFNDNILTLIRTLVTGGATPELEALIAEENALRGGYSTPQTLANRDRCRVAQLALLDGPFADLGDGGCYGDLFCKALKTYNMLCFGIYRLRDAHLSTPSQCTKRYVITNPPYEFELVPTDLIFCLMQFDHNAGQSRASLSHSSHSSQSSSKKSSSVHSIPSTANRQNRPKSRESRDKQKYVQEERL
calcium-dependent potassium channels, sequence (Q16558 whole entry partner): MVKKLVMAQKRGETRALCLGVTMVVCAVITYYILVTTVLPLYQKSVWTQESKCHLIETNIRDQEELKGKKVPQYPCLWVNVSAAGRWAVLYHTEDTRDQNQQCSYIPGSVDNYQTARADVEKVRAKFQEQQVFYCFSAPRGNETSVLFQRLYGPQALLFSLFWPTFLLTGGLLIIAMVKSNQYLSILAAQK

[4] = system: Sitophilus oryzae; details: sample from a Japanese scientist; Bodnaryk et al., U.S. Pat. No. 5,955,082; cited from earlier work
[5] = C8 material as peptide source, total dose 1.6 mg/200 mg of flour (D-I: 0.8 mg/100 mg)
[6] = total dose 1.6 mg/200 mg of flour (D-I: 0.8 mg/100 mg)
[7] = total dose 1.6 mg/200 mg of flour
[8] = saponin:peptide ratio 1:0 (saponin or soap alone), concentration 0.8%
[9] = C8 material as peptide source, total dose 1.6 mg/200 mg of flour
[10] = separate experiment, different batch of C8 material as peptide source, total dose 1.6 mg/200 mg of flour

| Compound | food consumption, peptide to saponin treatment ratio 9:1 (values in brackets) [1, 5] | food consumption, peptide to saponin treatment ratio 1:1 [1, 6] | food consumption, peptide to saponin treatment ratio 9:1 [1, 6] | synergy with pea peptides (in words) [1] | food consumption, initial treatment ([1]; 1.6 mg/200 mg of flour) | food consumption, peptide to saponin treatment ratio 1:9 [1, 7] | antifeedant activity (in words) [1] | Feeding as a percent of control (%) [1, 8] | Mean survival time (days ± SE) ([2]; 0.8%, Kaplan-Meier) | further results |
| --- | --- | --- | --- | --- | --- | --- | --- | --- | --- | --- |
| C[C@@H]1O[C@@H](O[C@H]2[C@H](O[C@H]3[C@H](O[C@H]4CC[C@@]5(C)[C@@H](CC[C@]6(C)[C@@H]5CC=C5[C@@H]7CC(C)(C)CC(=O)[C@]7(C)CC[C@]56C)[C@@]4(C)CO)O[C@H](C(=O)O)[C@@H](O)[C@@H]3O)O[C@H](CO)[C@H](O)[C@@H]2O)[C@H](O)[C@H](O)[C@H]1O [Dehydrosoyasaponin I, dehydrosoyasaponin I] | (17) % of control | 34 % of control | 32 % of control | clearly synergistic | – | – | – | – | – | food consumption in the rice weevil bioassay ([1]; RPC isolate, […]100 mg of flour (equivalent to 1.28 mg/200 mg)): 65%; Feeding as a percent of control (%) ([1]; saponin:peptide ratio 1:0, 0.6% used in this test): 65%; Mean survival time (days ± SE) ([2]; 0.6% used in this test): 13.8 ± 0.2 a days; action on calcium-dependent potassium channels (in words) [3]: high-affinity activator; potency as a potassium channel opener relative to S-I [3]: 60 fold |
| CC1(C)[C@@H](O[C@H]2O[C@H](C(=O)O)[C@@H](O)[C@H](O)[C@H]2O[C@@H]2O[C@H](C(=O)O)[C@@H](O)[C@H](O)[C@H]2O)CC[C@]2(C)[C@H]3C(=O)C=C4[C@@H]5C[C@@](C)(C(=O)O)CC[C@]5(C)CC[C@@]4(C)[C@]3(C)CC[C@@H]12 [Glycyrrhizic acid, glycyrrhizic acid] | – | 45 % of control | 33 % of control | clearly synergistic | 96 % of control | 39 % of control | inactive; also recorded: no significant reduction in feeding | 96% | – | – |
| C[C@@H]1O[C@@H](O[C@H]2[C@H](O[C@H]3CC[C@@]4(C)[C@@H](CC[C@]5(C)[C@@H]4CC=C4[C@@H]6CC(C)(C)CC[C@]6(C(=O)O[C@@H]6O[C@H](CO[C@@H]7O[C@H](CO)[C@@H](O[C@@H]8O[C@@H](C)[C@H](O)[C@@H](O)[C@H]8O)[C@H](O)[C@H]7O)[C@@H](O)[C@H](O)[C@H]6O)CC[C@]45C)[C@]3(C)CO)OC[C@H](O)[C@@H]2O)[C@H](O)[C@H](O)[C@H]1O [Hederacoside C, hederacoside C] | – | 47 % of control | 44 % of control | clearly synergistic | 117 % of control | 58 % of control | inactive | 117% | 13.9 a days | antifeedant activity (in words) ([1]; listed as hederacoside C): no significant reduction in feeding |
| CCCCCCCCCCCCCCCC(=O)OC[C@@H](O)COP(=O)([O-])OCC[N+](C)(C)C [L-16:0] | – | – | – | – | – | – | – | – | – | food consumption in the rice weevil bioassay ([1]; 1.6 mg/200 mg flour, relative to control): 102%; food consumption ([1]; lysolecithin-saponin (soyasaponin I) mixtures, similar experiments, total dose 0.016-1.6 mg/200 mg of flour): 84-102%; food consumption, expressed as % of untreated control ([1]; mixtures of 90% lysolecithin and 10% peptides (AIEX YM3), total dose 0.016-1.6 mg/200 mg of flour): 71-115% |
| C[C@@H]1O[C@@H](O[C@H]2[C@H](O[C@H]3[C@H](O[C@H]4CC[C@@]5(C)[C@@H](CC[C@]6(C)[C@@H]5CC=C5[C@@H]7CC(C)(C)C[C@@H](O)[C@]7(C)CC[C@]56C)[C@@]4(C)CO)O[C@H](C(=O)O)[C@@H](O)[C@@H]3O)O[C@H](CO)[C@H](O)[C@@H]2O)[C@H](O)[C@H](O)[C@H]1O [Soyasaponin I, soyasaponin I] | (29) % of control | 23 % of control | 24 % of control | – | 98 % of control | 16 % of control | inactive; also recorded: no significant reduction in feeding | 92% and 98% | 13.8 a days | food consumption, peptide to saponin treatment ratio 1:1 (values in brackets) [1, 9]: (27) % of control; food consumption, peptide to saponin treatment ratio 1:9 (values in brackets) [1, 9]: (26) % of control; food consumption in the rice weevil bioassay ([1]; RPC isolate, 0.43 mg dose, disks from one-half the usual amount of flour (100 mg)): 100%; food consumption (% of control) ([1]; Table 3, dose 1.6 mg/200 mg flour, listed as soyasaponin I (free acid)): 83 % of control and 114 % of control; feeding, % of the control ([1]; highest concentration tested, 12.8%): 75 % of the control; EC90 (%) to reduce feeding by 90% ([1]; saponin:peptide ratio 1:0): >>12 ^ %; food consumption, peptide to saponin treatment ratio 1:1 (values in brackets) [1, 10]: (33)^7 % of control; food consumption, peptide to saponin treatment ratio 1:9 (values in brackets) [1, 10]: (42)^7 % of control; food consumption, peptide to saponin treatment ratio 9:1 (values in brackets) [1, 10]: (44)^7 % of control; LD90 (%) [2]: >>12 ^ %; mortality / toxicity to the rice weevil (in words) [2]: no mortality; mortality / toxicity to the rice weevil (in words) ([2]; listed as soyasaponin I): no increase in mortality; activity in the rice weevil bioassays (in words) [4]: nearly inactive |
| CCCCCCCCCCCC(=O)OCCOCCOCCOCCOCCOCCOCCOCCOCCOCCOCCOCCOCCOCCOCCOCCOCCOCCOCCOCCOCC(OCCOCCOCCOCCOCCOCCOCCOCCOCCOCCOCCOCCOCCOCCOCCOCCOCCOCCOCCOCCO)C1OCC(OCCOCCOCCOCCOCCOCCOCCOCCOCCOCCOCCOCCOCCOCCOCCOCCOCCOCCOCCOCCO)C1OCCOCCOCCOCCOCCOCCOCCOCCOCCOCCOCCOCCOCCOCCOCCOCCOCCOCCOCCOCCO (stereo not drawn) [Tween 20, polyoxyethylene(20)sorbitan monolaurate] | – | – | – | – | – | – | – | 106% | 13.7 a days | mortality / toxicity to the rice weevil (in words) [2]: Neither Tween or dish soap were toxic |
| Cc1occc(=O)c1O [maltol, 3-hydroxy-2-methyl-4-pyrone] | – | – | – | – | – | – | inactive | – | – | f.c. (food consumption) ([1]; Table 4, 1.6 mg/200 mg of flour): 110 % of control |
| C[C@@H]1O[C@@H](O[C@H]2[C@H](O[C@H]3CC[C@@]4(C)[C@@H](CC[C@]5(C)[C@@H]4CC=C4[C@@H]6CC(C)(C)CC[C@]6(C(=O)O)CC[C@]45C)[C@]3(C)CO)OC[C@H](O)[C@@H]2O)[C@H](O)[C@H](O)[C@H]1O [α-Hederin, α-hederin] | – | 26 % of control | 24 % of control | – | 36 % of control | 26 % of control | – | 36% | – | – |
| β-escin | (14) % of control | 17 % of control | 17 % of control | – | – | 18 % of control | – | 18% and 30% | 6.3 ± 0.2 a days | food consumption, peptide to saponin treatment ratio 1:1 (values in brackets) [1, 9]: (15) % of control; food consumption, peptide to saponin treatment ratio 1:9 (values in brackets) [1, 9]: (16) % of control; EC90 (%) to reduce feeding by 90% ([1]; saponin:peptide ratio 1:0): 1.5%; LD90 (%) [2]: 1.74% |
